Reference: patent US20160194358A1, “LINEAR PEPTIDE ANTIBIOTCS” (priority 2013, published 2016)
≈ marks a conversion by molar mass, not a printed value. Read-outs that look alike come from different tables or passages of the source. *1 amine or outer side, *2 acyl side, *3 side chain or, on linkers, in order; H or OH if unused. Where a SMILES comes first, the peptide text is derived from it. [ ]: non-standard residue; d: D form. The star is where a group is joined. ξ: configuration not given here. boroAla((+)-pinanediol) = C[C@H](N*)B1O[C@@H]2C[C@@H]3C[C@@H](C3(C)C)[C@]2(C)O1; Biphenylcarbonyl(4'-Bu) = CCCCc1ccc(-c2ccc(C(=O)*)cc2)cc1; X5 = C[C@H](N*)B1OC2C[C@@H]3C[C@@H](C3(C)C)[C@]2(C)O1; Benzoyl(4-(4-Cl-Ph)) = O=C(c1ccc(-c2ccc(Cl)cc2)cc1)*; ξ3Amino2oxobutanoyl = CC(N[*:1])C(=O)C(=O)[*:2]; X16 = O=S(=O)(c1ccc(-c2ccc(Cl)cc2)cc1)*; X11 = CCCCc1ccc(-c2nc(C(=O)*)cs2)cc1; X10 = O=C(c1ccc(-c2ccc(Cl)cc2)nc1)*; X1 = C[C@H](N[*:1])C(=O)C(=O)[*:2]; Thr(3ξ) = CC(O)[C@H](N)C(=O)O; Decanoyl = CCCCCCCCCC(=O)*; X4 = c1ccc(C2CCN(*)CC2)cc1; X6 = NCCCCCCCCCCCCCCC(=O)*; Octanoyl = CCCCCCCC(=O)*; X8 = NCCCCCCCCCCCCC(=O)*; Dab = NCC[C@H](N)C(=O)O; Dap = NC[C@H](N)C(=O)O; CO = O=C([*:1])[*:2]; NHiPr = CC(C)N*; NHBu = CCCCN*; X13 = COCCCN*

Columns and labels:
[1] = tested on: Escherichia coli strain MC4100 IMP-4213, which harbors an LptD mutation; settings: E. coli MC4100 IMP-4213, 35° C., 22 hours
How it was run: (§1)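 CLSI broth microdilution in cation-adjusted Mueller Hinton Broth with 0.002% Tween-80, two-fold dilutions starting at 64 μg/ml.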

[2] = tested on: methicillin resistant Staphylococcus aureus (MRSA) strain USA300 (NRS384); settings: MRSA USA300 (NRS384), 35° C., 22 hours
How it was run: as §1

S. aureus SPase = S. aureus SPase (Staphylococcus aureus, UniProt P0A070); assay: biochemical; settings: IC 50 (nM) S. aureus, 20 μM substrate, 10 minutes preincubation
S. aureus SPase, sequence (P0A070 whole entry): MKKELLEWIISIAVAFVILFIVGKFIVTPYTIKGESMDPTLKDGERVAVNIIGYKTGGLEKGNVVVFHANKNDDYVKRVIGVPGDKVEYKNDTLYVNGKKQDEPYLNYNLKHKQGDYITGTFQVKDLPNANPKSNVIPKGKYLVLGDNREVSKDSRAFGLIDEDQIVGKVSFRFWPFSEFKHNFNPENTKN
Procedure: Full length His-tagged S. aureus SPase protein was expressed similarly from E. coli BL21(DE3) containing the plasmid pCDF1-SaSpsB and purified similarly to the E. coli protein with the following exceptions. SPase protein was solubilized using 300 mM NaCl, 20 mM Tris pH 8.06, 5 mM Imidazole, 10% glycerol, 1% Triton X-100, prior to purification in Ni-NTA Superflow resin and resin bound protein was washed in a similar buffer containing 1% Elugent in place of Triton X-100 prior to protein eluted in wash buffer supplemented with 300 mM imidazole. […] All protein concentrations were determined by BCA assay.
(§2) Signal peptidase enzyme activity of the above proteins was measured using two fluorogenic peptide substrates (decanoyl-LSSPAYNO2A ? ADKabzPD and decanoyl-LTPTAYNO2A ? ASKKabzDD), where abz is the fluorescence donor 2-aminobenzamide, YNO2 is the fluorescence acceptor 3-nitrotyrosine, and the cleavage site is indicated with an arrow. Enzyme mix solution was prepared by diluting 2.5 nM of Escherichia coli or Staphylococcus aureus SPase protein into reaction buffers consisting of 20 mM PO4 pH 7.4, 100 mM NaCl, and 1% Elugent™ or octyl phenoxypolyethoxylethanol detergent at a concentration of 0.25% or 0.0625%. Reactions were initiated by the addition of substrate to a final concentration of 20 μM. Reaction progress was monitored by measuring the increase in fluorescence signal (excitation at 314 nm, emission at 416 nm) using a SpectraMax M2 fluorescence microplate reader. To determine IC50 values of test compounds, compound stock solutions were prepared in DMSO at a concentration of 1 mM. Three-folder serial dilutions of test compounds, starting at 10 μM, were prepared in enzyme mix solution and incubated at room temperature for 10 minutes. Following this incubation, fluorogenic substrate was added to a final concentration of 20 μM and the increase in fluorescence, corresponding to substrate cleavage, was monitored continuously at room temperature for 1 hour. Initial reaction rates were calculated based on the rate of increase in fluorescence during the reaction. Reaction rates were plotted as a function of compound concentration, and IC50 values are determined nonlinear regression analysis (SoftMaxPro 5.4, Molecular Devices™) of the sigmoidal dose-response curve.

E. coli SPase = molecular target: T1, E. coli SPase (Escherichia coli, UniProt P00803); assay: Biochemical SPase activity assay, fluorogenic peptide substrate, E. coli enzyme; settings: 20 μM substrate, 10 minutes preincubation, read-out: IC 50 (nM) E. coli
T1 construct: Full length His-tagged E. coli SPase proteins; His; made in house; host or cells: E. coli BL21(DE3)
T1 sequence (P00803 whole entry): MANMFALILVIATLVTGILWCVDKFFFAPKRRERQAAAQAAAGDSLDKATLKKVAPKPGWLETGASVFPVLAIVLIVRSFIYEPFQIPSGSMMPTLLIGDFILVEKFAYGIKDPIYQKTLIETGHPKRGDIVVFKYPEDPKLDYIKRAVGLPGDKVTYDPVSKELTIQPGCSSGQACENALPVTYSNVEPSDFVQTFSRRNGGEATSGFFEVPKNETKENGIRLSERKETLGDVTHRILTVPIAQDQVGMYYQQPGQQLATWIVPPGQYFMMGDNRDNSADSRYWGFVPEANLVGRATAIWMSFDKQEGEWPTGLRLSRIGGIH
Procedure: Full length His-tagged E. coli SPase proteins were expressed in E. coli BL21(DE3) containing the plasmid pET23-lepB. Briefly, saturated overnight cultures grown in 20 ml of Luria-Bertani medium supplemented with ampicillin were subcultures into 1.5 L of Luria-Bertani, and shaken at 37° C. until an optical density at 600 nm of 0.4-0.5 was achieved.
as §2

| Structure (SMILES) | IC50 (S. aureus SPase) | IC50 (E. coli SPase) | MIC (μg/mL) E. coli [1] | MIC (μg/mL) S. aureus [2] | further results |
| --- | --- | --- | --- | --- | --- |
| CCCCc1ccc(-c2ccc(C(=O)N[C@@H](CCN)C(=O)N[C@H](C(=O)N[C@@H](C)C(=O)N[C@@H](CCCCN)C(=O)N[C@@H](C)C(=O)C3(C)CO3)[C@@H](C)O)cc2)cc1 (single isomer, unassigned) [Compound 207 P2] | 1300 nM | 9900 nM | – | – | MIC (μg/mL) E. coli ([1]; listed as 207 P2): 32 µg/mL (≈ 41.8 µM); MIC (μg/mL) S. aureus ([2]; listed as 207 P2): 32 µg/mL (≈ 41.8 µM) |
| CCCCCCCCCC(=O)N[C@@H](CCCCN)C(=O)N[C@H](C(=O)N[C@@H](C)C(=O)N[C@@H](CC(N)=O)C(=O)NC(C)C(=O)C(=O)NC)C(C)O (some centres unmarked) [Compound 107] (Decanoyl-K[Thr(3ξ)]AN[ξ3Amino2oxobutanoyl]-NHMe) | 360 nM | 3200 nM | >64 µg/mL | >64 µg/mL | – |
| CCCCNC(=O)C(=O)[C@H](C)NC(=O)[C@H](CCCCN)NC(=O)[C@H](C)NC(=O)[C@@H](NC(=O)[C@H](CN)NC(=O)c1ccc(-c2ccc(Cl)cc2)cc1)[C@@H](C)O [Compound 105] ({Benzoyl(4-(4-Cl-Ph))}-[Dap]TAK[X1]-NHBu) | 1300 nM | 900 nM | 64 µg/mL (≈ 82.8 µM) | 51 µg/mL (≈ 65.9 µM) | – |
| CCCCc1ccc(-c2ccc(C(=O)N[C@@H](CCN)C(=O)N[C@H](C(=O)N[C@@H](C)C(=O)N[C@@H](CCCCN)C(=O)N[C@@H](C)C(=O)C3CO3)[C@@H](C)O)cc2)cc1 (single isomer, unassigned) [Compound 201 P1] | 10 nM | 7 nM | – | – | MIC (μg/mL) E. coli ([1]; listed as 201 P1): 1 µg/mL (≈ 1.33 µM); MIC (μg/mL) S. aureus ([2]; listed as 201 P1): 0.09 µg/mL (≈ 0.12 µM) |
| CC(C)NC(=O)C(=O)[C@H](C)NC(=O)[C@H](CCCCN)NC(=O)[C@H](C)NC(=O)[C@@H](NC(=O)[C@H](CN)NC(=O)c1ccc(-c2ccc(Cl)cc2)cc1)[C@@H](C)O [Compound 103] ({Benzoyl(4-(4-Cl-Ph))}-[Dap]TAK[X1]-NHiPr) | 1400 nM | 1100 nM | >64 µg/mL | >64 µg/mL | – |
| C[C@H](NC(=O)[C@H](CCCCN)NC(=O)[C@H](C)NC(=O)[C@@H](NC(=O)[C@H](CCN)NC(=O)c1ccc(-c2ccc(Cl)cc2)nc1)[C@@H](C)O)B1O[C@@H]2C[C@@H]3C[C@@H](C3(C)C)[C@]2(C)O1 [Compound 118] (X10-[Dab]TAK-{boroAla((+)-pinanediol)}) | 70 nM | 15 nM | 8 µg/mL (≈ 9.53 µM) | 2 µg/mL (≈ 2.38 µM) | – |
| C[C@H](NC(=O)[C@H](CCCCN)NC(=O)[C@H](C)NC(=O)[C@@H](NC(=O)[C@H](CCCCN)NS(=O)(=O)c1ccc(-c2ccc(Cl)cc2)cc1)[C@@H](C)O)B1O[C@@H]2C[C@@H]3C[C@@H](C3(C)C)[C@]2(C)O1 [Compound 128] (X16-KTAK-{boroAla((+)-pinanediol)}) | 75 nM | 1200 nM | 64 µg/mL (≈ 70.9 µM) | 2 µg/mL (≈ 2.22 µM) | – |
| C[C@H](NC(=O)[C@H](CCCCN)NC(=O)[C@H](C)NC(=O)[C@@H](NC(=O)[C@H](CCN)NC(=O)CCCCCCCCCCCCN)[C@@H](C)O)B1O[C@@H]2C[C@@H]3C[C@@H](C3(C)C)[C@]2(C)O1 [Compound 115] (X8-[Dab]TAK-{boroAla((+)-pinanediol)}) | 590 nM | 330 nM | >64 µg/mL | 11 µg/mL (≈ 13.2 µM) | – |
| C[C@H](NC(=O)[C@H](CCCCN)NC(=O)[C@H](C)NC(=O)[C@@H](NC(=O)[C@H](CCN)NC(=O)CCCCCCCCCCCCCCN)[C@@H](C)O)B1O[C@@H]2C[C@@H]3C[C@@H](C3(C)C)[C@]2(C)O1 [Compound 116] (X6-[Dab]TAK-{boroAla((+)-pinanediol)}) | 480 nM | 200 nM | 32 µg/mL (≈ 37.1 µM) | 1.4 µg/mL (≈ 1.62 µM) | – |
| CCCCc1ccc(-c2ccc(C(=O)N[C@@H](CCN)C(=O)N[C@H](C(=O)N[C@@H](C)C(=O)N[C@@H](CCCCN)C(=O)N[C@@H](C)C(=O)C3CO3)[C@@H](C)O)cc2)cc1 (single isomer, unassigned) [Compound 201 P2] | 210 nM | 150 nM | – | – | MIC (μg/mL) E. coli ([1]; listed as 201 P2): 5.7 µg/mL (≈ 7.58 µM); MIC (μg/mL) S. aureus ([2]; listed as 201 P2): 2 µg/mL (≈ 2.66 µM) |
| COCCCNC(=O)C(=O)[C@H](C)NC(=O)[C@H](CCCCN)NC(=O)[C@H](C)NC(=O)[C@@H](NC(=O)[C@H](CN)NC(=O)c1ccc(-c2ccc(Cl)cc2)cc1)[C@@H](C)O [Compound 101] ({Benzoyl(4-(4-Cl-Ph))}-[Dap]TAK[X1]-X13) | 1600 nM | 870 nM | >64 µg/mL | >64 µg/mL | – |
| CCCCc1ccc(-c2ccc(C(=O)N[C@@H](CCN)C(=O)N[C@@H](CCC(N)=O)C(=O)N[C@@H](C)C(=O)N[C@@H](CCCCN)C(=O)N[C@@H](C)B3OC4C[C@@H]5C[C@@H](C5(C)C)[C@]4(C)O3)cc2)cc1 (some centres unmarked) [Compound 122] ({Biphenylcarbonyl(4'-Bu)}-[Dab]QAK-X5) | 240 nM | 20 nM | 0.2 µg/mL (≈ 0.225 µM) | 0.4 µg/mL (≈ 0.451 µM) | – |
| CCCCc1ccc(-c2ccc(C(=O)N[C@@H](CCN)C(=O)N[C@H](C(=O)N[C@@H](C)C(=O)N[C@@H](CCCCN)C(=O)N[C@@H](C)C(=O)C3OC3C)[C@@H](C)O)cc2)cc1 (single isomer, unassigned) [Compound 203 P2] | 1000 nM | 1500 nM | – | – | MIC (μg/mL) E. coli ([1]; listed as 203 P2): 23 µg/mL (≈ 30 µM); MIC (μg/mL) S. aureus ([2]; listed as 203 P2): 8 µg/mL (≈ 10.4 µM) |
| C[C@H](NC(=O)[C@H](CCCCN)NC(=O)[C@H](C)NC(=O)[C@@H](NC(=O)[C@H](CCCCN)NC(=O)N1CCC(c2ccccc2)CC1)[C@@H](C)O)B1O[C@@H]2C[C@@H]3C[C@@H](C3(C)C)[C@]2(C)O1 [Compound 126] ({X4-CO}-KTAK-{boroAla((+)-pinanediol)}) | 250 nM | 230 nM | >64 µg/mL | 64 µg/mL (≈ 76.3 µM) | – |
| CCCCc1ccc(-c2nc(C(=O)N[C@@H](CCN)C(=O)N[C@H](C(=O)N[C@@H](C)C(=O)N[C@@H](CCCCN)C(=O)N[C@@H](C)B3O[C@@H]4C[C@@H]5C[C@@H](C5(C)C)[C@]4(C)O3)[C@@H](C)O)cs2)cc1 [Compound 121] (X11-[Dab]TAK-{boroAla((+)-pinanediol)}) | 280 nM | 54 nM | 1.3 µg/mL (≈ 1.5 µM) | 0.4 µg/mL (≈ 0.461 µM) | – |
| CCCCCCCC(=O)N[C@@H](CCN)C(=O)N[C@H](C(=O)N[C@@H](C)C(=O)N[C@@H](CCCCN)C(=O)N[C@@H](C)B1O[C@@H]2C[C@@H]3C[C@@H](C3(C)C)[C@]2(C)O1)[C@@H](C)O [Compound 114] (Octanoyl-[Dab]TAK-{boroAla((+)-pinanediol)}) | 250 nM | 64 nM | 32 µg/mL (≈ 42.7 µM) | 13 µg/mL (≈ 17.3 µM) | – |
| CCCCc1ccc(-c2ccc(C(=O)N[C@@H](CCN)C(=O)N[C@H](C(=O)N[C@@H](C)C(=O)N[C@@H](CCCCN)C(=O)N[C@@H](C)C(=O)C3OC3C)[C@@H](C)O)cc2)cc1 (single isomer, unassigned) [Compound 205 P2] | > 10000 nM | > 10000 nM | – | – | MIC (μg/mL) E. coli ([1]; listed as 205 P2): 32 µg/mL (≈ 41.8 µM); MIC (μg/mL) S. aureus ([2]; listed as 205 P2): >64 µg/mL |
